# According to patent publication US5466671A, “Apidaecin-type peptide antibiotics with improved activities and/or different antibacterial spectrum” (priority 1994, dated 1995):
# Residues, ends and D or L forms follow the SMILES beside them.
# What was measured:
# [1] = tested on: Escherichia coli (ATCC11775); experiment: Inhibition zone assay (agar plate); format: cell-based
# Enterobacter cloacae = experiment: Inhibition zone assay (agar plate); format: cell-based
# Erwinia amylovora = experiment: Inhibition zone assay (agar plate); format: cell-based
# Klebsiella pneumoniae = experiment: Inhibition zone assay (agar plate); format: cell-based
# Salmonella typhimurium = experiment: Inhibition zone assay (agar plate); format: cell-based
# Salmonella typhi = format: cell-based
# Shigella dysenteriae = format: cell-based; settings: 50 nanomoles per well (3 mm diameter)
# [2] = tested on: Acinetobacter calcoaceticus; experiment: Inhibition zone assay (agar plate); format: cell-based
# [3] = tested on: Agrobacterium tumefaciens; experiment: Inhibition zone assay (agar plate); format: cell-based
# E. coli D22 = format: cell-based; settings: 50 nanomoles per well (3 mm diameter)
# strains tested = format: cell-based; settings: agar plate
# [4] = tested on: Escherichia coli (11775 Apid R); format: cell-based; settings: agar plate, 50 nanomoles/well, 3 mm wells
# Morganella morganii = experiment: Inhibition zone assay (agar plate); format: cell-based; settings: 50 nanomoles/well, 3 mm wells
# Yersinia enterocolitica = experiment: Inhibition zone assay (agar plate); format: cell-based; settings: 50 nanomoles/well, 3 mm wells
# Francisella tularensis = format: cell-based; settings: agar plate, 50 nanomoles/well, 3 mm wells
# Pseudomonas syringae = experiment: Inhibition zone assay (agar plate); format: cell-based; settings: agar plate, 50 nanomoles/well, 3 mm wells
# Rhizobium meliloti = experiment: Inhibition zone assay (agar plate); format: cell-based; settings: 50 nanomoles/well, 3 mm wells
# Haemophilus influenzae = experiment: Inhibition zone assay (agar plate); format: cell-based; settings: 50 nanomoles/well, 3 mm wells
# E. coli Apid^R = experiment: Minimal inhibitory concentration (liquid culture); format: cell-based; settings: inoculum 1000 CFU/ml; a-b = highest concentration with growth - lowest without growth
# From the text: For details see `Experimental Procedures`.
# E. coli 11775 = experiment: Minimal inhibitory concentration (liquid culture); settings: a-b = highest concentration with growth - lowest without growth
# E. coli 23802 = experiment: Minimal inhibitory concentration (liquid culture); settings: inoculum 5000 CFU/ml; a-b = highest concentration with growth - lowest without growth
# E. coli 25922 = experiment: Minimal inhibitory concentration (liquid culture); settings: inoculum 1100 CFU/ml; a-b = highest concentration with growth - lowest without growth
# S. typhimurium = experiment: Minimal inhibitory concentration (liquid culture); settings: inoculum 8 × 10^6 CFU/ml; a-b = highest concentration with growth - lowest without growth
# A. calcoaceticus = experiment: Minimal inhibitory concentration (liquid culture); settings: inoculum 16 × 10^6 CFU/ml; a-b = highest concentration with growth - lowest without growth
# M. morganii = experiment: Minimal inhibitory concentration (liquid culture); settings: inoculum 400 CFU/ml; a-b = highest concentration with growth - lowest without growth
# Y. enterocolitica = experiment: Minimal inhibitory concentration (liquid culture); settings: inoculum 5000 CFU/ml; a-b = highest concentration with growth - lowest without growth
# [5] = 50 nanomoles per well (3 mm diameter)
# [6] = agar plate, 50 nanomoles/well, 3 mm wells
structure (smiles),measurement,setting,value
"CC[C@H](C)[C@H](NC(=O)[C@@H]1CCCN1C(=O)[C@@H](NC(=O)[C@H](CCC(N)=O)NC(=O)[C@@H]1CCCN1C(=O)[C@H](CO)NC(=O)[C@@H]1CCCN1C(=O)[C@H](CCCNC(=N)N)NC(=O)[C@@H](N)CO)C(C)C)C(=O)N[C@@H](CCCNC(=N)N)C(=O)N1CCC[C@H]1C(=O)N[C@@H](CO)C(=O)N[C@@H](CCC(N)=O)C(=O)N1CCC[C@H]1C(=O)N[C@@H](CCCNC(=N)N)C(=O)N1CCC[C@H]1C(=O)N[C@@H](CCC(N)=O)C(=O)N1CCC[C@H]1C(=O)N[C@@H](Cc1ccccc1)C(=O)N[C@@H](CCCCN)C(=O)N1CCC[C@H]1C(=O)N[C@@H](CCCNC(=N)N)C(=O)N1CCC[C@H]1C(=O)N[C@@H](CCC(N)=O)C(=O)N[C@@H](CCC(N)=O)C(=O)N[C@H](C(=O)N1CCC[C@H]1C(=O)N1CCC[C@H]1C(=O)N[C@@H](CCCNC(=N)N)C(=O)N[C@H](C(=O)N1CCC[C@H]1C(=O)N[C@@H](Cc1c[nH]cn1)C(=O)N1CCC[C@H]1C(=O)N[C@@H](CCCNC(=N)N)C(=O)N[C@@H](CC(C)C)C(=O)O)[C@@H](C)O)C(C)C [PAB-FT 1-35, SRPSPQVPIRPSQPRPQPFKPRPQQVPPRTPHPRL] (H-SRPSPQVPIRPSQPRPQPFKPRPQQVPPRTPHPRL-OH)",Inhibition zones: in mm diameter,[1]; [5],10 mm
same,Inhibition zones: in mm diameter,Enterobacter cloacae; [5],11 mm
same,Inhibition zones: in mm diameter,Erwinia amylovora; [5],5 mm
same,Inhibition zones: in mm diameter,Klebsiella pneumoniae; [5],9 mm
same,Inhibition zones: in mm diameter,Salmonella typhimurium; [5],7 mm
same,Inhibition zones: in mm diameter,Salmonella typhi; [5],14 mm
same,Inhibition zones: in mm diameter,Shigella dysenteriae,12 mm
same,Inhibition zones: in mm diameter,[2]; [5],7 mm
same,Inhibition zones: in mm diameter,[3]; [5],5 mm
same,Inhibition zones: in mm diameter,E. coli D22,14 mm
same,"antibacterial activity, overall (inhibition zone)",strains tested,has antibacterial activity
"CC[C@H](C)[C@H](NC(=O)[C@@H]1CCCN1C(=O)[C@H](C)NC(=O)[C@@H]1CCCN1C(=O)[C@H](CCCNC(=N)N)NC(=O)[C@@H]1CCCN1C(=O)[C@H](CCCNC(=N)N)NC(=O)[C@@H](N)CC(N)=O)C(=O)N[C@@H](CCC(N)=O)C(=O)N1CCC[C@H]1C(=O)N[C@@H](CCCNC(=N)N)C(=O)N1CCC[C@H]1C(=O)N1CCC[C@H]1C(=O)N[C@@H](Cc1c[nH]cn1)C(=O)N1CCC[C@H]1C(=O)N[C@@H](CCCNC(=N)N)C(=O)N[C@@H](CC(C)C)C(=O)O [Cd 1-, Asn--Arg--Pro--Arg--Pro--Ala--Pro--Ile--Gln--Pro--Arg--Pro--Pro--His--Pro--Arg--Leu] (H-NRPRPAPIQPRPPHPRL-OH)",inhibition zone diameter (number of plus signs),[1]; [6],+++ ((+++) 10-14 mm)
same,inhibition zone diameter (number of plus signs),[4],++ ((++) 7-9 mm)
same,inhibition zone diameter (number of plus signs),Enterobacter cloacae; [6],+++ ((+++) 10-14 mm)
same,inhibition zone diameter (number of plus signs),Erwinia amylovora; [6],++++ ((++++) 15-19 mm)
same,inhibition zone diameter (number of plus signs),Klebsiella pneumoniae; [6],++ ((++) 7-9 mm)
same,inhibition zone diameter (number of plus signs),Morganella morganii,++ ((++) 7-9 mm)
same,inhibition zone diameter (number of plus signs),Salmonella typhimurium; [6],+++ ((+++) 10-14 mm)
same,inhibition zone diameter (number of plus signs),Salmonella typhi; [6],++ ((++) 7-9 mm)
same,inhibition zone diameter (number of plus signs),Yersinia enterocolitica,++ ((++) 7-9 mm)
same,inhibition zone diameter (number of plus signs),[2]; [6],++ ((++) 7-9 mm)
same,inhibition zone diameter (number of plus signs),[3]; [6],+++ ((+++) 10-14 mm)
same,inhibition zone diameter (number of plus signs),Francisella tularensis,++ ((++) 7-9 mm)
same,inhibition zone diameter (number of plus signs),Pseudomonas syringae,++++ ((++++) 15-19 mm)
same,inhibition zone diameter (number of plus signs),Rhizobium meliloti,++++ ((++++) 15-19 mm)
same,inhibition zone diameter (number of plus signs),Haemophilus influenzae,+++ ((+++) 10-14 mm)
same,minimal inhibitory concentration (MIC),E. coli Apid^R,> 40 µg/mL
same,minimal inhibitory concentration (MIC),E. coli 11775; inoculum 16 × 10^6 CFU/ml,0.5 to 1 µg/mL
same,minimal inhibitory concentration (MIC),E. coli 11775; inoculum 1200 CFU/ml,0.5 to 1 µg/mL
same,minimal inhibitory concentration (MIC),E. coli 23802,5 to 10 µg/mL
same,minimal inhibitory concentration (MIC),E. coli 25922,0.5 to 1 µg/mL
same,minimal inhibitory concentration (MIC),S. typhimurium,0.5 to 1 µg/mL
same,minimal inhibitory concentration (MIC),A. calcoaceticus,> 20 µg/mL
same,minimal inhibitory concentration (MIC),M. morganii,20 to 40 µg/mL
same,minimal inhibitory concentration (MIC),Y. enterocolitica,5 to 10 µg/mL
"CC(C)C[C@H](NC(=O)[C@H](CCCNC(=N)N)NC(=O)[C@@H]1CCCN1C(=O)[C@H](Cc1c[nH]cn1)NC(=O)[C@@H]1CCCN1C(=O)[C@@H](NC(=O)[C@H](CCCNC(=N)N)NC(=O)[C@@H]1CCCN1C(=O)[C@@H]1CCCN1C(=O)[C@@H](NC(=O)[C@H](CCC(N)=O)NC(=O)[C@H](CCC(N)=O)NC(=O)[C@@H]1CCCN1C(=O)[C@H](CCCNC(=N)N)NC(=O)[C@@H]1CCCN1C(=O)[C@H](CCCCN)NC(=O)CN)C(C)C)[C@@H](C)O)C(=O)O [HoGT, G K P R P Q Q V P P R T P H P R L] (H-GKPRPQQVPPRTPHPRL-OH)","antibacterial activity, overall (inhibition zone)",strains tested,lack detectable antibacterial activity
